These results are taken from US10653700B2, “Composition comprising a therapeutic agent and a respiratory stimulant and methods for the use thereof” (priority 2015, dated 2020).

Where a name gives a salt, the structure may show the parent alone. Read-outs that look alike come from different tables or passages of the source.

Series [1] is described as follows: minute volume after intravenous doxapram enantiomers in rats. In kind it is in vivo. The following applies: for behavioral side effects (agitation, seizures): rats.
The nature of series [2]: minute volume after intravenous doxapram enantiomers in cynomolgus monkeys. In kind it is in vivo. Particulars: for behavioral side effects (agitation, seizures): monkeys.
Series [3] in a line: blood pressure in conscious rats. In kind it is in vivo. The following applies: doses that were moderately respiratory stimulant.
For series [4] the following is noted: chronic administration, multi-year trials; cited from earlier work.
For series [5] the following is noted: cited from earlier work.
For series [6] the following is noted: mice; cited from earlier work.
For series [7] the following is noted: obstructive sleep apnea, four subjects; cited from earlier work.
The conditions of series [8]: rat, IV, single dose; cited from earlier work.
For series [9] the following is noted: cited from earlier work. This is another data set of the same source.
For series [10] the following is noted: humans, severe life-threatening side effects; cited from earlier work.
The conditions of series [11]: intravenous; cited from earlier work.
The conditions of series [12]: carotid body denervated rats; cited from earlier work.
The conditions of series [13]: cited from earlier work. This is another data set of the same source.
For series [14] the following is noted: carotid sinus nerve transection; cited from earlier work.
For series [15] the following is noted: cited from earlier work. This is another data set of the same source.
Series [16] concerns AMPA receptor. The following applies: human, in vivo; cited from earlier work.
Series [17] has as its system AMPA receptor. Particulars: in vivo; cited from earlier work.
The conditions of series [18]: in blood; cited from earlier work.
The conditions of series [19]: cited from earlier work. The source holds these as a separate data set.
For series [20] the following is noted: rhesus monkeys; cited from earlier work.
For series [21] the following is noted: lambs; cited from earlier work.
Setting [22] is: healthy volunteers, room air VE unchanged.

Consider `CCN1CC(CCN2CCOCC2)C(c2ccccc2)(c2ccccc2)C1=O` (centres unmarked) [GAL-054], for which the minute volume entry in series [1] (intravenous, drug naïve and opioid challenged rats) is “dose-dependently increased minute volume”; in [2] (intravenous, drug naïve and opioid challenged cynomolgus monkeys), “dose-dependently increased minute volume”. In addition, the “behavioral side effects (agitation, seizures)” value in series [1] and in series [2] was “minimal behavioral changes” throughout. In addition, in series [3], the “increase in blood pressure above baseline values” was 15-20%.

`C=CCNc1nc(NCC=C)nc(N2CCN(C(c3ccc(F)cc3)c3ccc(F)cc3)CC2)n1` [almitrine, N,N′-Diallyl-6-[4-(4,4′difluorobenzhydryl)piperazin-1-yl]-1,3,5-triazine-2,4-diyldiamine]: in series [4], the weight loss is recorded as > 15%. In series [5] (setting [22]), the plasma level at which slope of hypercapnic ventilatory response increased is > 200 ng/mL and the plasma level at which slope of hypoxic ventilatory response increased is > 50 ng/mL. In addition, in [5] (room air, plasma concentrations exceeding approximately 250 μg/ml), the “increase in VE above baseline” value is listed as “about 11%”. Further, the LD50 in [6] is > 200 mg/kg.

In the case of `CCN1CC(CCN2CCOCC2)C(c2ccccc2)(c2ccccc2)C1=O` (racemic) [doxapram, 1-ethyl-4-[2-(4-morpholinyl)ethyl]-3,3-diphenyl-2-pyrrolidinone monohydrochloride, monohydrate], the oxyhemoglobin desaturation events result in series [7] is “decreased the duration and severity”. Further, in series [8], the LD50 is 72 mg/kg. Moreover, in series [9] (1.5 mg/kg bolus), the T1/2 is 3.4 h and the peak in serum result is “around 3 μg/ml”. For the same compound, the peak plasma concentration in series [9] (300 mg oral administration) was 0.96 µg/mL. In addition, the peak plasma concentration in series [9] (IV infusion 3.5 mg/kg/hr for 2 hours) was 4.0 µg/mL. For the same compound, the T1/2 in series [9] (after stop of IV infusion 3.5 mg/kg/hr for 2 hours) was 3.9 h. In [9] (in vivo), the “effect on minute ventilation, time span” value was 0 to 10 min and the “return of minute ventilation to baseline” value was ≤ 15 min. The therapeutic window in series [10] is on record as 20-40 fold. The 50% lethal dose (LD50) in series [6] is 85 mg/kg. Besides, in [11], the duration of effect is 5 to 12 min, the half-life was 3.4 h, the onset is 20 to 40 s and the peak plasma time was 1 to 2 min. Besides, in series [12], the blood pressure entry is recorded as “increased blood pressure”.

Regarding `COc1ccc2c3c1O[C@H]1C(=O)CC[C@H]4[C@@H](C2)N(C)CC[C@]314.O=C(O)C(O)C(O)C(=O)O` [hydrocodone bitartrate], the “maximum plasma concentration (Cmax)” value in series [13] (after 15 mg hydrocodone to a human subject, depending on formulation) was 1 to 40.

In the case of `CCCNc1nc(NCCC)nc(N(C)OC)n1` [GAL-021], the “reduction of GAL-021-induced respiratory stimulation” value in series [14] was “about 85%”. For the same compound, in series [15] (1-h continuous infusions), the “VE (AUE 0-1 h)” value was “statistically significant increases”; the “time to half-maximal effect on VE and ETCO2” value was < 10 min. In series [15] (after infusion), the “distribution t1/2” value is 0.5 h and the “terminal t1/2” value was 5 to 7 h.

Consider `O=C(c1ccc2nonc2c1)N1CCOCC1` [CX717], for which the “respiratory rate vs. placebo” value with AMPA receptor [16] is reported as “prevented the fall in respiratory rate”. For the same compound, the “effect on respiratory depression” value in the series with AMPA receptor [17] is on record as “able to reverse the respiratory depressive effects”.

For `COc1ccc2c3c1O[C@H]1C(=O)CC[C@H]4[C@@H](C2)N(C)CC[C@]314` [hydrocodone], in [18], the bound to protein is recorded as 20-50%. In series [19] (average), the serum half-life was 3.8 h. Besides, in series [19] (in vivo), the “metabolism attributed to non-cytochrome-catalyzed reactions” value was “Approximately 40%”. Further, the “blood and plasma concentration” value in [13] (acute, fatal overdose) was 100-1,600 μg/L; in [13] (people taking the drug therapeutically), 5 to 30 µg/L; in [13] (recreational users), 100 to 200 µg/L. In addition, the “analgesic potency versus morphine” value in series [20] was “higher than morphine”.

For `CCN1CC(CCN2CCOCC2=O)C(c2ccccc2)(c2ccccc2)C1=O` (centres unmarked) [AHR 5955, ketodoxapram], the activity of metabolite result in series [21] is listed as “metabolically active in lambs in a dose dependent fashion”.

Take `CCN1CC(CCN2CCOCC2)C(c2ccccc2)(c2ccccc2)C1=O` (centres unmarked) [GAL-053]: the “behavioral side effects (agitation, seizures)” value in series [1] is “agitation and seizures were restricted to GAL-053”; in series [2], “agitation and seizures were restricted to GAL-053”.

What is called LD50 is the dose at which mortality reaches 50%. What is called half-life is how long it takes for the measured level to halve.
